Test results as given in patent US10450613B2, “EGFR/NEDD9/TGF-β interactome and methods of use thereof for the identification of agents having efficacy in the treatment of hyperproliferative disorders” (Fox Chase Cancer Center, priority 2007, dated 2019).

How the values were obtained:
A431 cells [1] = experiment: Phosphoproteomic analysis, Proteome Profiler array of 46 signaling proteins; assay type: cell-based, human
Procedure: For phosphoproteomic analysis, we used the Proteome Profiler™ array (R&D Systems, Minneapolis, Minn., USA) according to the manufacturer's protocol. In brief, A431 cells were grown for 24 hours in DMEM supplemented with L-glutamine and 1% FBS to 70% confluency. Cells then were either serum starved overnight or remained in the same media. Serum starved and cells incubated in 1% serum were either left untreated or incubated with IC30 concentrations of inhibitors for 3 hours. […] Serum-starved cells were subsequently stimulated with recombinant EGF (Sigma-Aldrich, USA) at 15 ng/mL for 15 minutes before lysis. For a subset of phospho-proteins, phosphorylation status was confirmed by Western blot. Quantification was done using ImageJ software.

[2] = test system: EGFR, ERK1/2 and AKT phosphorylation; experiment: Western analysis of EGFR pathway after inhibitor treatment and EGF stimulation; assay type: cell-based, human
cancer cells = experiment: Drug synergy testing (Chou-Talalay CI), cell line not stated (FIG. 17B); assay type: cell-based
Procedure: (§1) The coefficient of interaction (CI) between pharmacological inhibitors was established by the Chou-Talalay method (Chou et al., (1984) Adv Enzyme Regul 22:27). The software package CalcuSyn (BioSoft, UK) was used to automate calculations. Briefly, for each drug tested, an IC50 curve was established in each cell line, and used to select combination doses of drugs for subsequent synergy tests. 3500 cells were plated per well in 96-well plates. After 24 hours, cells were treated with serial dilutions of individual inhibitors, or combinations of two inhibitors maintained at a constant molar ratio. After 72 hours incubation, cell viability was measured using either CellTiter Blue (Promega, USA) or a WST1 assay (Roche Applied Science, Indianapolis, Ind.). The CI values for each dose and corresponding cytotoxicity were expressed as the fraction affected (Fa) and were calculated using CalcuSyn computer software and presented as Fa-CI plots. CI values <1 indicate synergy, and <0.5 strong synergy, between the two agents in producing cytotoxic effect.

HCT116 cells [3] = experiment: Drug synergy testing (Chou-Talalay CI), viability; assay type: cell-based, human
Procedure: as §1

A431 cells [4] = experiment: Drug synergy testing (Chou-Talalay CI), viability; assay type: cell-based, human; details: 72 hours, CI <1 synergy, <0.5 strong synergy
Procedure: as §1

HCT116 cells [5] = experiment: Apoptosis after drug combination treatment; assay type: cell-based, human; details: HCT116, 72 hours (FIG. 17C)
[6] = A431, serum starved, EGF-stimulated (FIG. 19A)
[7] = PHA-680632 alone, transient EGF stimulation

CCc1cccc(CC)c1NC(=O)N1Cc2n[nH]c(NC(=O)c3ccc(N4CCN(C)CC4)cc3)c2C1 [PHA-680632]
Phosphorylation of 46 signaling proteins, combination of erlotinib and PHA-680632 (A431 cells [1]; A431, 1% serum steady state, erlotinib 0.5 μM plus PHA 0.1 μM (FIG. 19B)): significant reduction in activity of STAT3, and a group of Src kinases | Phosphorylation of 46 signaling proteins, combination of erlotinib and PHA-680632 (A431 cells [1]; [6]): specific inhibition of a subset of proteins | Phosphorylation of 46 signaling proteins, single agent (A431 cells [1]; [6]): little effect | S473-AKT phosphorylation, combination with erlotinib ([2]; 3 hrs inhibitors then EGF, vs either agent alone (FIGS. 17H, 18; HCT116)): very significantly reduced | EGFR expression, autophosphorylation, and activation [2, 7]: did not inhibit | ERK1/2 or AKT phosphorylation [2, 7]: little effect | Synergy with cetuximab (Chou-Talalay CI) (cancer cells): synergized | Cell viability, combination with erlotinib (HCT116 cells [3]; HCT116 (FIG. 17D)): Dose-dependent inhibition | Synergy with erlotinib in reducing viability (Chou-Talalay CI) (HCT116 cells [3]; HCT116, 72 hours, CI <1 synergy, <0.5 strong synergy): synergized strongly | Synergy with erlotinib in reducing viability (Chou-Talalay CI) (A431 cells [4]): synergized strongly | Frequency of apoptosis, combination with erlotinib (HCT116 cells [5]): increases apoptosis
